Consider six compounds from patent US9409893B2, “Heteroaryl derivatives and uses thereof” (Jacobus Pharmaceutical Company, Inc., priority 2012, dated 2016).

Each structure is given as a SMILES string. Marks after values point to notes of the source that are not given here. A value given as a limit tells only on which side of the number the result lay.

One experiment relates to P. falciparum strain D6. The experiment is described as follows: [3H]-hypoxanthine growth inhibition assay, P. falciparum D6. In kind it is cell-based. The following applies: Plasmodium falciparum; P. falciparum D6 (sensitive to chloroquine and pyrimethamine), [3H]-hypoxanthine incorporation; read-out: D6 IC50. An outline of the steps:
(§1)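 Parasites cultured in human O Rh+ RBCs in RPMI-1640-LPLF (low PABA and folic acid) with 10% human plasma, pH 6.9, 37° C, 5% O2/5% CO2/90% N2. Sorbitol-synchronised ring-stage cultures started at 1% parasitaemia; growth measured as [3H]-hypoxanthine incorporation in hypoxanthine-free medium. Compound stocks 1 mM in DMSO.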

A further experiment deals with P. falciparum strain W2. The experiment can be described thus: [3H]-hypoxanthine growth inhibition assay, P. falciparum W2. In kind it is cell-based. Conditions: Plasmodium falciparum; P. falciparum W2 (resistant to chloroquine and pyrimethamine), [3H]-hypoxanthine incorporation; read-out: W2 IC50. Summed up:
as §1

Experiment [1] has as its system Plasmodium berghei (KBG-173 strain). The experiment can be described thus: Plasmodium berghei assay in vivo (modified Thompson Test) in CD-1 mice. The following applies: bid on days 3, 4 and 5; for Average Days Survival: 31 day experiment; for responders at 4 mg/kg / responders at 8 mg/kg / responders at 16 mg/kg / responders at 32 mg/kg / responders at 64 mg/kg: Plasmodium berghei, 744 h, CD-1 mice infected with P. berghei, read-out: Number of mice alive at day 31 (converted). As for the experimental part: In vivo antimalarial activity was tested in male or female Charles River CD-1 mice that were 4-5 weeks old and weighed 20-25 g They were housed in groups of 3 or 4 in standard plastic cages with wire tops, Bed-o-Cob® bedding, 12 hr/day of light, and maintained at 75° F. They were fed a standard Ralston Purina mouse chow and the cages and bottles were changed twice a week. Test compounds were ground in a mortar and pestle and diluted with enough vehicle to give a volume of 10 mL/kg of mouse weight. The oral doses were prepared in 0.5% hydroxyethylcellulose (Union Carbide Corp. WP 4400)/0.1% Tween-80 (Fisher Scientific T164-500). The amount of drug was calculated on the free base weight. The mice were infected intraperitoneally on day 0 with 5×10^4 erythrocytes parasitized with Plasmodium berghei (KBG-173 strain) from a donor mouse having a parasitemia between 5-10%. On days 3, 4 and 5 the test compounds were administered bid, spaced 6 hr apart, by oral gavage to the mice. Activity was measured by survival, with full activity defined as all animals living at day 31. Partial activity is defined as days of increased survival versus the infected non-treated controls. This in vivo model is a modification of the Thompson Test. For further description see Ager, A. L, Jr. Rodent Malaria Models. In Handbook of Experimental Pharmacology: Antimalarial Drugs. 1. 68/1; Peters, W., Richards, W. H. G., Eds.: Springer-Verlag: Berlin, 1984, pp. 231-33.

As for `CC(C)(C)NCc1cc(C(C)(C)C)cc(-c2cnc(Cl)c(Cl)c2)c1O.Cl` [Example 41, 4-(tert-Butyl)-2-((tert-butylamino)methyl)-6-(5,6-dichloropyridin-3-yl)phenol hydrochloride], the half-inhibitory concentration (IC50) in the experiment with P. falciparum strain D6 was determined as 0.01 µM. In addition, in the experiment with P. falciparum strain W2, the concentration for half-maximal inhibition (IC50) stood at 0.003 µM. Also, in experiment [1] (4 mg/kg/day oral), the “Average Days Survival” value was >31* days and the responders at 4 mg/kg was 100%. In experiment [1] (8 mg/kg/day oral), the “Average Days Survival” value was >31* days and the responders at 8 mg/kg was 100%. For the same compound, in experiment [1] (16 mg/kg/day oral), the “Average Days Survival” value is given as >31* days and the responders at 16 mg/kg was 100%. Besides, in experiment [1] (32 mg/kg/day oral), the “Average Days Survival” value is given as >31* days and the responders at 32 mg/kg is 100%. In addition, in experiment [1] (64 mg/kg/day oral), the “Average Days Survival” value was >31* days and the responders at 64 mg/kg is 100%.

As for `CC(C)(C)NCc1cc(C(C)(C)C)cc(-c2cnc(C(F)(F)F)c(Cl)c2)c1O.Cl` [Example 44, 4-(tert-Butyl)-2-((tert-butylamino)methyl)-6-(5-chloro-6-(trifluoromethyl)pyridin-3-yl)phenol hydrochloride], the IC50 in the experiment on P. falciparum strain D6 stood at 0.011 µM. Also, the IC50 in the experiment with P. falciparum strain W2 was 0.006 µM. In addition, in experiment [1] (4 mg/kg/day oral), the “Average Days Survival” value was >31* days and the responders at 4 mg/kg was 100%. Moreover, in experiment [1] (8 mg/kg/day oral), the “Average Days Survival” value is given as >31* days and the responders at 8 mg/kg was 100%. In addition, in experiment [1] (16 mg/kg/day oral), the “Average Days Survival” value is >31* days and the responders at 16 mg/kg was 100%. Also, in experiment [1] (32 mg/kg/day oral), the “Average Days Survival” value is >31* days and the responders at 32 mg/kg was 100%. For the same compound, in experiment [1] (64 mg/kg/day oral), the “Average Days Survival” value was >31* days and the responders at 64 mg/kg is 100%.

For `CC(C)(C)c1cc(CN(CC2CCCCC2)C(C)(C)C)c(O)c(-c2ccc(C(F)(F)F)nc2)c1.Cl` [Example 58, 4-(tert-Butyl)-2-((tert-butyl(cyclohexylmethyl)amino)methyl)-6-(6-(trifluoromethyl)pyridin-3-yl)phenol hydrochloride], in the experiment on P. falciparum strain D6, the IC50 came to 1.02 µM. Besides, the IC50 in the experiment with P. falciparum strain W2 was determined as 0.541 µM. Besides, in experiment [1] (4 mg/kg/day oral), the “Average Days Survival” value was over 17.5 days and the responders at 4 mg/kg is 14.3%. Also, in experiment [1] (8 mg/kg/day oral), the “Average Days Survival” value was over 20 days and the responders at 8 mg/kg is 42.9%. Moreover, in experiment [1] (16 mg/kg/day oral), the “Average Days Survival” value is given as over 23.8 days and the responders at 16 mg/kg is 42.9%. In addition, in experiment [1] (32 mg/kg/day oral), the “Average Days Survival” value was over 26 days and the responders at 32 mg/kg is 85.7%. Besides, in experiment [1] (64 mg/kg/day oral), the “Average Days Survival” value was >31* days and the responders at 64 mg/kg was 100%.

As for `CC(C)(C)NCc1cc(-c2ccc(F)cc2)cc(-c2ccc(C(F)(F)F)nc2)c1O.Cl` [Example 66, 3-((tert-Butylamino)methyl)-4′-fluoro-5-(6-(trifluoromethyl)pyridin-3-yl)-[1,1′-biphenyl]-4-ol hydrochloride], the IC50 in the experiment with P. falciparum strain D6 came out at 0.07 µM; in the experiment with P. falciparum strain W2 it was 0.041 µM. Further, the “Average Days Survival” value was over 21.3 days in experiment [1] (4 mg/kg/day oral); over 26 days in experiment [1] (8 mg/kg/day oral); >31* days in experiment [1] (16 mg/kg/day oral); over 24 days in experiment [1] (32 mg/kg/day oral); over 7 days in experiment [1] (64 mg/kg/day oral). Also, in experiment [1] (4 mg/kg/day oral), the responders at 4 mg/kg is 14.3%. Moreover, the responders at 8 mg/kg in experiment [1] (8 mg/kg/day oral) is 85.7%. For the same compound, the responders at 16 mg/kg in experiment [1] (16 mg/kg/day oral) was 100%. Moreover, the responders at 32 mg/kg in experiment [1] (32 mg/kg/day oral) was 85.7%. Also, the responders at 64 mg/kg in experiment [1] (64 mg/kg/day oral) was 85.7%.

For `CC(C)(C)NCc1cc(-c2ccc(Cl)cc2)cc(-c2ccc(C(F)(F)F)nc2)c1O.Cl` [Example 70, 3-((tert-Butylamino)methyl)-4′-chloro-5-(6-(trifluoromethyl)pyridin-3-yl)-[1,1′-biphenyl]-4-ol hydrochloride], the IC50 in the experiment with P. falciparum strain D6 came out at 0.09 µM. Moreover, the IC50 in the experiment with P. falciparum strain W2 was found to be 0.048 µM. In addition, in experiment [1] (4 mg/kg/day oral), the “Average Days Survival” value is over 19.5 days and the responders at 4 mg/kg was 42.9%. In experiment [1] (8 mg/kg/day oral), the “Average Days Survival” value is given as over 21.5 days and the responders at 8 mg/kg was 71.4%. For the same compound, in experiment [1] (16 mg/kg/day oral), the “Average Days Survival” value is recorded as over 19 days and the responders at 16 mg/kg is 57.1%. In experiment [1] (32 mg/kg/day oral), the “Average Days Survival” value was >31* days and the responders at 32 mg/kg was 100%. In experiment [1] (64 mg/kg/day oral), the “Average Days Survival” value is listed as >31* days and the responders at 64 mg/kg is 100%.

Consider `CC(C)(C)c1cc2c(c(-c3ccc(C(F)(F)F)nc3)c1)OCN(C(C)(C)C)C2` [Example 75, 3,6-di-tert-Butyl-8-(6-(trifluoromethyl)pyridin-3-yl)-3,4-dihydro-2H-benzo[e][1,3]oxazine], for which the IC50 with P. falciparum strain D6 was 0.02 µM. Moreover, the IC50 with P. falciparum strain W2 amounted to 0.012 µM. In experiment [1] (4 mg/kg/day oral), the “Average Days Survival” value is listed as over 22 days and the responders at 4 mg/kg was 57.1%. Besides, in experiment [1] (8 mg/kg/day oral), the “Average Days Survival” value is on record as over 25 days and the responders at 8 mg/kg was 57.1%. In addition, in experiment [1] (16 mg/kg/day oral), the “Average Days Survival” value is given as >31* days and the responders at 16 mg/kg was 100%. In experiment [1] (32 mg/kg/day oral), the “Average Days Survival” value was >31* days and the responders at 32 mg/kg is 100%. Also, in experiment [1] (64 mg/kg/day oral), the “Average Days Survival” value is reported as >31* days and the responders at 64 mg/kg was 100%.

Broadly, the IC50 is the concentration that gives 50% inhibition.
